Series [1] deals with Rattus norvegicus. Description: Toxicity in po dosed CCI-induced Sprague-Dawley rat neuropathic pain model assessed as decreased locomotion. It is filed as organism-based. Conditions: in vivo.
The subject of series [2] is Rattus norvegicus. The experiment in a line: Toxicity in po dosed CCI-induced Sprague-Dawley rat neuropathic pain model assessed as sedation. It is filed as organism-based. The following applies: in vivo.
Series [3] has as its system Rattus norvegicus. Description: Analgesic activity in CCI-induced Sprague-Dawley rat neuropathic pain model assessed as reduction in paw withdrawal measured 30 mins after po administration. It is filed as functional, organism-based.
Series [4] addresses T1, Transient receptor potential cation channel subfamily V member 1 (Homo sapiens, UniProt Q8NER1). Description: Antagonist activity at human TRPV1 expressed in CHOK1 cells assessed as inhibition of N-acetyldopamine-induced activity after 5 mins by FLIPR assay. It is filed as functional, cell-based, CHO-K1.
Series [5] has as its target T1, Transient receptor potential cation channel subfamily V member 1. Description: Antagonist activity at human TRPV1 expressed in CHOK1 cells assessed as inhibition of heat-induced activity after 5 mins by FLIPR assay. It is filed as functional, cell-based, CHO-K1.
The target is the same in series [6]. Description: Antagonist activity at human TRPV1 expressed in CHOK1 cells assessed as inhibition of pH-induced activity by FLIPR assay. It is filed as functional, cell-based, CHO-K1.
The target is the same in series [7]. The experiment in a line: Antagonist activity at human TRPV1 expressed in CHOK1 cells assessed as inhibition of capsaicin-induced activity by FLIPR assay. It is filed as functional, cell-based, CHO-K1.
In series [8] the test system is Mus musculus. The experiment in a line: Inhibition of capsaicin-induced hypothermia in NMRI mouse at 0.3 mg/kg, po administered 15 mins prior challenge. It is filed as functional, organism-based. Also on record: dose 0.3 mg/kg.
For series [9], the system named is Rattus norvegicus. Description: Analgesic activity in CCI-induced Sprague-Dawley rat neuropathic pain model assessed as reduction in paw withdrawal at 3.16 mg/kg, po after 45 mins. It is filed as functional.
Series [10] has as its system Rattus norvegicus. Description: Analgesic activity in CCI-induced Sprague-Dawley rat neuropathic pain model assessed as reduction in paw withdrawal measured 45 mins after po administration. It is filed as functional.
The test system of series [11] is Mus musculus. The experiment in a line: Acute toxicity in C57BL/6J mouse assessed as hyperthermia at 1 mg/kg, po at 45 to 60 mins. Conditions: in vivo.
Series [12] has as its system Mus musculus. The experiment in a line: Acute toxicity in TRPV1 knockout mouse assessed as hyperthermia at 1 mg/kg, po at 45 to 60 mins. The following applies: in vivo.

The source made the active and inactive calls. No cut-off for these calls is given here.

For orientation: Ki means a dissociation constant, usually derived from enzyme kinetics or from competition with a known ligand. By IC50 is commonly meant the concentration that gives 50% inhibition. By Emax is commonly meant the size of the effect at its maximum, as opposed to the concentration needed. Broadly, the ED50 is the midpoint of the dose-response relation.

T1 sequence (Q8NER1 whole entry): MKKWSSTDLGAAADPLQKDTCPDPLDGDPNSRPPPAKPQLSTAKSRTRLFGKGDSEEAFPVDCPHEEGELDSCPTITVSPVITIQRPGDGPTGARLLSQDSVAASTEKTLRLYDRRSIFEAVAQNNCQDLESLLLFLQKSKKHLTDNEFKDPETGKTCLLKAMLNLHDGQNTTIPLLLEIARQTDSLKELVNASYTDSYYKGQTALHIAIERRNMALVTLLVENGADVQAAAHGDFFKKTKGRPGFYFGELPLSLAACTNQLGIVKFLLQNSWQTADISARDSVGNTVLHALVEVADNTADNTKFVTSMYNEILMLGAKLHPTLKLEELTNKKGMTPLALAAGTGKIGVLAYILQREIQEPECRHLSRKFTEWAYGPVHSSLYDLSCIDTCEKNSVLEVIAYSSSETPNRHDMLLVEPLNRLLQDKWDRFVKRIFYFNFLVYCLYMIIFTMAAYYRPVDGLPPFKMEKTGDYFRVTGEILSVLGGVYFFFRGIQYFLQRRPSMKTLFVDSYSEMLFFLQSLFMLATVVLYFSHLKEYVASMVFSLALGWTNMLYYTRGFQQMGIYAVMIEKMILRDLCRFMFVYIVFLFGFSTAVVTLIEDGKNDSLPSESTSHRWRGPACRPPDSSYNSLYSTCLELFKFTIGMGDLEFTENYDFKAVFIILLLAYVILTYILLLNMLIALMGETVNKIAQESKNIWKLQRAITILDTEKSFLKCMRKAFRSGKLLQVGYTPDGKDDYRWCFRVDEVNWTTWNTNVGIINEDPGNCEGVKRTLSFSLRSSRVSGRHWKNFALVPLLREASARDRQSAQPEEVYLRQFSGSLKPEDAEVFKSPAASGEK

Turning to `C[C@H](C(=O)NCc1ccc(C(C)(C)C)cc1)c1ccc(NS(C)(=O)=O)c(F)c1`, the Activity entry in series [1] and in [2] was “Non-toxic” throughout. The result in [3] was Active. Moreover, the figures for the Ki in series [4] and in [7] (read-out: Ki) were 6.6 nM and 20 nM, respectively. The IC50 in series [5] was 174 nM; in [6] (read-out: IC50), 1210 nM.

On to `CC(C(=O)NCc1ccc(C(F)(F)F)nc1NCc1cccnc1)c1ccc(NS(C)(=O)=O)c(F)c1` (racemic), for which the IC50 entry in series [6] (cho-k1) is listed as “Not Active”. The Ki entry in [7] (cho-k1) was “Not Active”.

`CC1CCC(Nc2nc(C(F)(F)F)ccc2CNC(=O)C(C)c2ccc(NS(C)(=O)=O)c(F)c2)CC1` (racemic): in [6] (read-out: IC50), the IC50 is 1130 nM. In addition, the Ki in series [7] (read-out: Ki) worked out at 27.2 nM.

As for `CC(C(=O)NCc1ccc(C(F)(F)F)nc1N1CCCCCC1)c1ccc(NS(C)(=O)=O)c(F)c1` (racemic), in series [6] (read-out: IC50), the IC50 was 25.1 nM. Also, the Ki in [7] (read-out: Ki) came to 0.8 nM.

On to `CC(C(=O)NCc1ccc(C(F)(F)F)nc1N1CCC(Cc2cc(F)cc(F)c2)CC1)c1ccc(NS(C)(=O)=O)c(F)c1` (racemic), for which the IC50 in series [6] (read-out: IC50) came to 24 nM. Moreover, in series [7] (read-out: Ki), the inhibition constant Ki was 0.4 nM.

In the case of `CC1CCCN1c1nc(C(F)(F)F)ccc1CNC(=O)[C@@H](C)c1ccc(NS(C)(=O)=O)c(F)c1` (stereo not given in full), the Ki in series [7] (read-out: Ki) amounted to 0.3 nM.

In the case of `Cc1ccc(CC2CCN(c3nc(C(F)(F)F)ccc3CNC(=O)C(C)c3ccc(NS(C)(=O)=O)c(F)c3)CC2)cc1` (racemic), in [6] (read-out: IC50), the IC50 turned out to be 17 nM. In addition, in series [7] (read-out: Ki), the Ki is 0.2 nM.

For the compound `CC(C(=O)NCc1ccc(C(F)(F)F)nc1N1CCN(c2ncccc2Cl)CC1)c1ccc(NS(C)(=O)=O)c(F)c1` (racemic), the IC50 in series [6] (read-out: IC50) stood at 117 nM.

For `CC1CCN(c2nc(C(F)(F)F)ccc2CNC(=O)C(C)c2ccc(NS(C)(=O)=O)c(F)c2)CC1` (racemic), the IC50 in series [6] (read-out: IC50) stood at 8.4 nM.

For the compound `CC(C(=O)NCc1ccc(C(F)(F)F)nc1N1CCCCC1)c1ccc(NS(C)(=O)=O)c(F)c1` (racemic), the Ki in series [7] (read-out: Ki) is 0.43 nM.

For the compound `CC1CCN(c2nc(C(F)(F)F)ccc2CNC(=O)[C@@H](C)c2ccc(NS(C)(=O)=O)c(F)c2)CC1`, the Activity result in [1] is “Non-toxic”; in [2], “Non-toxic”; in [10], “Dose-dependent effect”; in series [11], “Toxic”; in [12] it was “Non-toxic”. The result in [8] was Active. Further, the Emax at 3.16 mg/kg in series [9] is 60%. In addition, in series [10], the ED50 amounted to 0.9 mg/kg. The Ki in [4] came out at 0.01 nM; in series [7] (read-out: Ki), 0.2 nM. For the same compound, the IC50 in series [5] is 0.8 nM; in series [6] (read-out: IC50), 6.3 nM.

For the compound `C[C@H](C(=O)NCc1ccc(C(F)(F)F)nc1N1CCC[C@H]1CO)c1ccc(NS(C)(=O)=O)c(F)c1`, the IC50 result in [6] (cho-k1) is given as “Not Active”.

As to `CC(C(=O)NCc1ccc(C(F)(F)F)nc1N1CCC(C(=O)c2ccc(F)cc2)CC1)c1ccc(NS(C)(=O)=O)c(F)c1` (racemic), the IC50 in series [6] (read-out: IC50) came out at 990 nM. The Ki in series [7] (read-out: Ki) worked out at 3.9 nM.

In the case of `O=C(/C=C/c1ccc(C(F)(F)F)nc1N1CCCCC1)Nc1ccc2cccnc2c1`, in series [6] (cho-k1), the IC50 entry is given as “Not Active”. For the same compound, the Ki in series [7] (read-out: Ki) stood at 4.4 nM.

With `C[C@H](C(=O)NCc1ccc(C(F)(F)F)nc1N1CC[C@H](NC(=O)OC(C)(C)C)C1)c1ccc(NS(C)(=O)=O)c(F)c1`, in series [6] (read-out: IC50), the IC50 was 737 nM. In series [7] (read-out: Ki), the Ki was 7.1 nM.

Regarding `CC(C(=O)NCc1ccc(C(F)(F)F)nc1N1CCC(CN(C)C)CC1)c1ccc(NS(C)(=O)=O)c(F)c1` (racemic), the IC50 in series [6] (read-out: IC50) was 426 nM. Further, the Ki in series [7] (read-out: Ki) came to 2.1 nM.

Regarding `CC(C(=O)NCc1ccc(C(F)(F)F)nc1N1CCN(c2ccc(C(F)(F)F)cc2)CC1)c1ccc(NS(C)(=O)=O)c(F)c1` (racemic), in [6] (read-out: IC50), the IC50 amounted to 117 nM. For the same compound, in [7] (read-out: Ki), the inhibition constant (Ki) stood at 2.3 nM.

On to `CC(C(=O)NCc1ccc(C(F)(F)F)nc1N1CCC(Cc2ccc(F)c(F)c2)CC1)c1ccc(NS(C)(=O)=O)c(F)c1` (racemic), for which the IC50 in series [6] (read-out: IC50) is 30 nM. Further, the Ki in [7] (read-out: Ki) was 0.2 nM.

Turning to `C[C@H](C(=O)NCc1ccc(C(F)(F)F)nc1N1CC[C@@H](OCc2ccccc2)C1)c1ccc(NS(C)(=O)=O)c(F)c1`, the concentration for half-maximal inhibition (IC50) in [6] (read-out: IC50) worked out at 50 nM. In series [7] (read-out: Ki), the Ki turned out to be 1.4 nM.

On to `CC1CCN(c2nc(C(F)(F)F)ccc2CNC(=O)[C@H](C)c2ccc(NS(C)(=O)=O)c(F)c2)CC1`, for which, in [6] (read-out: IC50), the IC50 turned out to be 254 nM. In addition, the Ki in series [7] (read-out: Ki) is 9.8 nM.

On to `C[C@H](C(=O)NCc1ccc(C(F)(F)F)nc1N1CCCCC1)c1ccc(NS(C)(=O)=O)c(F)c1`, for which the IC50 in [6] (read-out: IC50) stood at 46.7 nM.

In the case of `O=C(/C=C/c1ccc(C(F)(F)F)nc1N1CCOCC1)Nc1ccc2cccnc2c1`, the IC50 in series [6] (read-out: IC50) turned out to be 116 nM. In addition, in series [7] (read-out: Ki), the Ki turned out to be 1.2 nM.

Take `C[C@H](C(=O)NCc1ccc(C(F)(F)F)nc1N1CC[C@H](N(C)C)C1)c1ccc(NS(C)(=O)=O)c(F)c1`: the Ki in [7] (read-out: Ki) was determined as 103 nM.

Turning to `CC(C)(C)c1ccc(CNC(=S)NCc2ccc(NS(C)(=O)=O)c(F)c2)cc1`, in series [6] (cho-k1), the IC50 result is “Not Active”. Besides, the Ki in [7] (read-out: Ki) turned out to be 26 nM.

On to `CC(C(=O)NCc1ccc(C(F)(F)F)nc1N1CCC(O)CC1)c1ccc(NS(C)(=O)=O)c(F)c1` (racemic), for which, in series [6] (cho-k1), the IC50 result is reported as “Not Active”. In addition, in [7] (cho-k1), the Ki entry is “Not Active”.

As to `C[C@H](C(=O)NCc1ccc(C(F)(F)F)nc1N1CC[C@@H](NC(=O)OC(C)(C)C)C1)c1ccc(NS(C)(=O)=O)c(F)c1`, in series [6] (read-out: IC50), the IC50 turned out to be 757 nM. Also, the Ki in series [7] (read-out: Ki) came to 11 nM.

Consider `CC(C(=O)NCc1ccc(C(F)(F)F)nc1)c1ccc(NS(C)(=O)=O)c(F)c1` (racemic), for which, in series [6] (cho-k1), the IC50 result is “Not Active”.

With `C[C@H](C(=O)NCc1ccc(C(F)(F)F)nc1N1CC[C@@H](N(C)C)C1)c1ccc(NS(C)(=O)=O)c(F)c1`, in series [7] (read-out: Ki), the Ki was found to be 101 nM.

In the case of `C[C@H](C(=O)NCc1ccc(C(F)(F)F)nc1N1CCC[C@H]1C(=O)OC(C)(C)C)c1ccc(NS(C)(=O)=O)c(F)c1`, in [6] (read-out: IC50), the IC50 stood at 209 nM. Also, in series [7] (read-out: Ki), the Ki is 2.6 nM.

As to `C[C@H](C(=O)NCc1ccc(C(F)(F)F)nc1N1CCC[C@H]1C(=O)N(C)C)c1ccc(NS(C)(=O)=O)c(F)c1`, the IC50 entry in [6] (cho-k1) is “Not Active”.

Values taken from ChEMBL document CHEMBL2176890, “2-(3-fluoro-4-methylsulfonylaminophenyl)propanamides as potent transient receptor potential vanilloid 1 (TRPV1) antagonists: structure-activity relationships of 2-amino derivatives in the N-(6-trifluoromethylpyridin-3-ylmethyl) C-region” (J Med Chem, 2012).
